Common to all, as to test: relative viability (nuclei count vs DMSO), 5 days (fraction); higher = more cells survive
Compound in test [1]: CC1=CC=C(C=C1)C(=O)CN2C3=C(CCCC3)SC2=N [Pifithrin_alpha] + CCNC(=O)c1noc(-c2cc(C(C)C)c(O)cc2O)c1-c1ccc(CN2CCOCC2)cc1 [Luminespib] (partner 0.01 µM)
In a few lines:
(§1)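 Lung cancer cell lines were seeded in 1536-well plates and dosed by pin tool the next day, with either a single drug or a fixed anchor-drug dose combined with five library-drug doses (not always all listed) spaced in √10 steps. Five days later, one step fixed the cells and stained their nuclei (final 0.05% Triton X-100, 1% formaldehyde, 1 ug/ml Hoechst), and nuclei were counted on 4× images. Relative viability is the nuclei count in treated wells divided by the count in vehicle wells, and each value is the median of duplicate plates.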

Compound in the test “Axitinib + Pemetrexed”: CNC(=O)c1ccccc1Sc1ccc2c(/C=C/c3ccccn3)n[nH]c2c1 [Axitinib] + Nc1nc2[nH]cc(CCc3ccc(C(=O)N[C@@H](CCC(=O)O)C(=O)O)cc3)c2c(=O)[nH]1 [Pemetrexed] (partner 0.2 µM)
In a few lines: as §1

Compound in the test “Bemcentinib + Alpelisib”: Nc1nc(Nc2ccc3c(c2)CC[C@@H](N2CCCC2)CC3)nn1-c1cc2c(nn1)-c1ccccc1CCC2 [Bemcentinib] + Cc1nc(NC(=O)N2CCC[C@H]2C(N)=O)sc1-c1ccnc(C(C)(C)C(F)(F)F)c1 [Alpelisib] (partner 2 µM)
In a few lines:
as §1

Compound in the test “Axitinib + Dasatinib”: CNC(=O)c1ccccc1Sc1ccc2c(/C=C/c3ccccn3)n[nH]c2c1 [Axitinib] + Cc1nc(Nc2ncc(C(=O)Nc3c(C)cccc3Cl)s2)cc(N2CCN(CCO)CC2)n1 [Dasatinib] (partner 0.075 µM)
In a few lines:
as §1

Consider NCI-H650, for which the relative viability was determined as 0.904 in test [1] (first compound 3.162 µM); 0.801 in test [1] (first compound 10 µM); 0.607 in test [1] (first compound 31.62 µM); 0.773 in test [1] (first compound 100 µM); 1.09 in the test with Axitinib + Pemetrexed (first compound 0.005 µM); 0.808 in the test with Axitinib + Pemetrexed (first compound 0.01581 µM). For the same cell line, the relative viability with Axitinib + Pemetrexed (first compound 0.05 µM) was found to be 1.04; in the test with Axitinib + Pemetrexed (first compound 0.1581 µM), 1.02; with Axitinib + Pemetrexed (first compound 0.5 µM) it was 0.855; in the test with Bemcentinib + Alpelisib (first compound 0.04 µM), 1.01; with Bemcentinib + Alpelisib (first compound 0.1265 µM), 1.38; with Bemcentinib + Alpelisib (first compound 0.4 µM), 1.22. The relative viability in the test with Bemcentinib + Alpelisib (first compound 1.265 µM) turned out to be 0.974; with Bemcentinib + Alpelisib (first compound 4 µM), 1.06; with Axitinib + Dasatinib (first compound 0.005 µM), 0.496; with Axitinib + Dasatinib (first compound 0.01581 µM), 0.455; with Axitinib + Dasatinib (first compound 0.05 µM), 0.47; with Axitinib + Dasatinib (first compound 0.1581 µM), 0.436. For the same cell line, the relative viability with Axitinib + Dasatinib (first compound 0.5 µM) was 0.396.
